Data reported in ChEMBL document CHEMBL1201862, “PubChem BioAssay data set” (2004).
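Values below derive from 48-hour exposures of cells grown in 96-well plates, with endpoints linearly interpolated between the two concentrations bracketing the appropriate inhibition level. GI50 = concentration required for 50% inhibition of growth.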 Calls of active or inactive are those of the source. Rule as the data show it: active = GI50 up to about 1.1 µM and inactive = higher.

Key:
Assay in all cases: NCI tumour cell line growth inhibition, 48 h
786-0 = test system: 786-0
A498 = test system: A498
ACHN = test system: ACHN
CCRF-CEM = test system: CCRF-CEM
COLO 205 = test system: COLO 205
DMS-114 = test system: DMS-114
HCT-116 = test system: HCT-116
HOP-62 = test system: HOP-62
HOP-92 = test system: HOP-92
HT-29 = test system: HT-29
IGROV-1 = test system: IGROV-1
K562 = test system: K562
KM-20L2 = test system: KM-20L2
KM12 = test system: KM12
LXFL 529 = test system: LXFL 529
M14 = test system: M14
M19-MEL = test system: M19-MEL
MOLT-4 = test system: MOLT-4
Malme-3M = test system: Malme-3M
NCI-H23 = test system: NCI-H23
NCI-H460 = test system: NCI-H460
NCI-H522 = test system: NCI-H522
OVCAR-3 = test system: OVCAR-3
OVCAR-4 = test system: OVCAR-4
OVCAR-5 = test system: OVCAR-5
RPMI-8226 = test system: RPMI-8226
RXF 393 = test system: RXF 393
SF-268 = test system: SF-268
SF-295 = test system: SF-295
SK-MEL-28 = test system: SK-MEL-28
SK-OV-3 = test system: SK-OV-3
SNB-19 = test system: SNB-19
SNB-75 = test system: SNB-75
SNB-78 = test system: SNB-78
SR = test system: SR
U-251 = test system: U-251
UACC-257 = test system: UACC-257
UACC-62 = test system: UACC-62
UO-31 = test system: UO-31
CAKI-1 = test system: CAKI-1
DLD-1 = test system: DLD-1
EKVX = test system: EKVX
HCT-15 = test system: HCT-15
HL-60 = test system: HL-60
LOX IMVI = test system: LOX IMVI
NCI-H226 = test system: NCI-H226
OVCAR-8 = test system: OVCAR-8
SF-539 = test system: SF-539
SK-MEL-2 = test system: SK-MEL-2
SK-MEL-5 = test system: SK-MEL-5
SN12C = test system: SN12C
SW-620 = test system: SW-620
TK-10 = test system: TK-10
XF498 = test system: XF498

Measured: GI50

COc1ccc2c(c1)CC[C@@H]1C2CC[C@](C)(C#N)C1CC#N (stereo partly drawn)
inactive: 786-0 > 100 µM | A498 > 100 µM | ACHN > 100 µM | CCRF-CEM > 100 µM | COLO 205 > 100 µM | DMS-114 > 100 µM | HCT-116 > 100 µM | HOP-62 > 100 µM | HOP-92 > 100 µM | HT-29 > 100 µM | IGROV-1 > 100 µM | K562 > 100 µM | KM-20L2 > 100 µM | KM12 > 100 µM | LXFL 529 > 100 µM | M14 > 100 µM | M19-MEL > 100 µM | MOLT-4 > 100 µM | Malme-3M > 100 µM | NCI-H23 > 100 µM | NCI-H460 > 100 µM | NCI-H522 > 100 µM | OVCAR-3 > 100 µM | OVCAR-4 > 100 µM | OVCAR-5 > 100 µM | RPMI-8226 > 100 µM | RXF 393 > 100 µM | SF-268 > 100 µM | SF-295 > 100 µM | SK-MEL-28 > 100 µM | SK-OV-3 > 100 µM | SNB-19 > 100 µM | SNB-75 > 100 µM | SNB-78 > 100 µM | SR > 100 µM | U-251 > 100 µM | UACC-257 > 100 µM | UACC-62 > 100 µM | UO-31 > 100 µM

Cc1nc(=O)n2c(C)n[nH]c2c1C(=O)O
> 100 µM: HCT-15
inactive: 786-0 > 100 µM | ACHN > 100 µM | CAKI-1 > 100 µM | CCRF-CEM > 100 µM | COLO 205 > 100 µM | DLD-1 > 100 µM | DMS-114 > 100 µM | EKVX > 100 µM | HCT-116 > 100 µM | HL-60 > 100 µM | HOP-62 > 100 µM | HOP-92 > 100 µM | HT-29 > 100 µM | IGROV-1 > 100 µM | K562 > 100 µM | KM12 > 100 µM | LOX IMVI > 100 µM | LXFL 529 > 100 µM | M14 > 100 µM | M19-MEL > 100 µM | MOLT-4 > 100 µM | Malme-3M > 100 µM | NCI-H226 > 100 µM | NCI-H23 > 100 µM | NCI-H460 > 100 µM | NCI-H522 > 100 µM | OVCAR-3 > 100 µM | OVCAR-4 > 100 µM | OVCAR-5 > 100 µM | OVCAR-8 > 100 µM | RPMI-8226 > 100 µM | RXF 393 31.1 µM | SF-268 > 100 µM | SF-295 > 100 µM | SF-539 > 100 µM | SK-MEL-28 > 100 µM | SK-MEL-2 > 100 µM | SK-MEL-5 10 µM | SK-OV-3 > 100 µM | SN12C > 100 µM | SNB-78 > 100 µM | SR > 100 µM | SW-620 > 100 µM | TK-10 > 100 µM | U-251 > 100 µM | UACC-62 > 100 µM | UO-31 > 100 µM | XF498 > 100 µM
